Calls of active or inactive are those of the source. No cut-off for these calls is given here.
Columns and labels:
[1] = tested on: Echinochloa oryzicola; assay: Herbicidal activity against Echinochloa oryzicola seedlings assessed as induction of seedlings damage measured after 3 weeks post compound application through paddy water; format: functional
[2] = tested on: Echinochloa oryzicola; assay: Light dependent herbicidal activity against Echinochloa oryzicola seedlings assessed as inhibition of seedlings growth at 10 ppm measured after 6 days post compound application under greenhouse conditions at 25 +/- 2 degC with day light; format: functional, organism-based
[3] = tested on: Echinochloa oryzicola; assay: Light dependent herbicidal activity against Echinochloa oryzicola seedlings assessed as inhibition of seedlings growth at 10 ppm measured after 6 days post compound application under greenhouse conditions at 25 +/- 2 degC under dark conditions; format: functional, organism-based
[4] = tested on: Echinochloa oryzicola; assay: Potency index, ratio of ED90 for chlomethoxyfen to ED90 for test compound for herbicidal activity against Echinochloa oryzicola seedling; format: functional

Structure (SMILES) | ED90 [1] [gAi/ha] | growth inhibition (GI) [2] | growth inhibition (GI) [3] | Ratio [4]
CCOC(=O)c1cc(CN(CC(C)C)C(=O)/C=C/C(C)Cl)ccc1Cl (racemic) | <16 | Active | – | –
CC(Cl)/C=C/C(=O)N(Cc1ccc(Cl)cc1OS(C)(=O)=O)CC(C)C (racemic) | 500 | Active | – | –
COc1cc(Oc2ccc(Cl)cc2Cl)ccc1[N+](=O)[O-] [CHLOMETHOXYFEN] | 250 | – | – | –
CC(O)/C=C/C(=O)N(Cc1ccc(Cl)cc1)CC(C)C (racemic) | >5000 | Active | – | –
CC(Cl)/C=C/C(=O)N(Cc1ccc(S(C)(=O)=O)cc1)CC(C)C (racemic) | >1000 | Active | – | –
CCC(Br)/C=C/C(=O)N(Cc1ccc(Cl)cc1)CC(C)C (racemic) | 125 | – | – | –
CCCCC(Br)/C=C/C(=O)N(Cc1ccc(Cl)cc1)CC(C)C (racemic) | 2500 | – | – | –
CCCOc1ccc(Cl)c(CN(CC(C)C)C(=O)/C=C/C(C)Cl)c1 (racemic) | 62 | Active | – | –
CC(Cl)/C=C/C(=O)N(Cc1ccc(Cl)c(OS(C)(=O)=O)c1)CC(C)C (racemic) | 31 | Active | – | –
CCCOc1cc(CN(CC(C)C)C(=O)/C=C/C(C)Cl)ccc1Cl (racemic) | 31 | Active | – | –
CC(Cl)/C=C/C(=O)N(Cc1cc(OS(C)(=O)=O)ccc1Cl)CC(C)C (racemic) | 31 | Active | – | –
CCCCN(Cc1ccc(Cl)cc1)C(=O)/C=C/C(C)Cl (racemic) | 31 | Active | – | –
CC(Cl)/C=C/C(=O)N(Cc1ccccc1C#N)CC(C)C (racemic) | 250 | Active | – | –
CCCCCCCCC(Br)/C=C/C(=O)N(Cc1ccc(Cl)cc1)CC(C)C (racemic) | >5000 | – | – | –
CC(Cl)/C=C/C(=O)N(CCC(C)C)Cc1ccc(Cl)cc1 (racemic) | <16 | Active | – | –
CC(Cl)/C=C/C(=O)N(Cc1ccc(Cl)c([N+](=O)[O-])c1)CC(C)C (racemic) | 31 | Active | – | –
CC(Cl)/C=C/C(=O)N(Cc1ccc(Cl)cc1)C1CCCCC1 (racemic) | 31 | Active | – | –
CC(Cl)/C=C/C(=O)N(Cc1ccc(Cl)cc1)C(C)C (racemic) | 250 | Active | – | –
CC(Cl)/C=C/C(=O)N(Cc1ccc(Cl)cc1Cl)CC(C)C (racemic) | 125 | Active | – | –
CC(I)/C=C/C(=O)N(Cc1ccc(Cl)cc1)CC(C)C (racemic) | 250 | Active | – | –

Structure (SMILES) | ED90 [1] [gAi/ha] | growth inhibition (GI) [2] | growth inhibition (GI) [3] | Ratio [4]
CC(Cl)/C=C/C(=O)N(Cc1ccccc1)CC(C)C (stereo not given) | 125 | Active | – | –
CC(Cl)/C=C/C(=O)N(Cc1cccc(C#N)c1)CC(C)C (racemic) | 500 | Active | – | –
CCCOCCN(C(=O)CCl)c1c(CC)cccc1CC | – | – | Active | –
CCN(Cc1ccc(Cl)cc1)C(=O)/C=C/C(C)Cl (racemic) | 250 | Active | – | –
COc1cc(CN(CC(C)C)C(=O)/C=C/C(C)Cl)ccc1C#N (racemic) | 16 | Active | – | –
CCCCCCCCN(Cc1ccc(Cl)cc1)C(=O)/C=C/C(C)Cl (racemic) | >5000 | Active | – | –
CC(Cl)/C=C/C(=O)N(Cc1ccc(Cl)cc1)C1CCCCCC1 (racemic) | 62 | Active | – | –
CSc1ccc(CN(CC(C)C)C(=O)/C=C/C(C)Cl)cc1 (racemic) | 250 | Active | – | –
CC(Cl)/C=C/C(=O)N(Cc1ccc([N+](=O)[O-])cc1)CC(C)C (racemic) | 250 | Active | – | –
CC(Cl)/C=C/C(=O)N(Cc1ccc(C(=O)O)cc1)CC(C)C (racemic) | >5000 | Active | – | –
CC(Cl)/C=C/C(=O)N(Cc1ccc(Cl)cc1)C(C)(C)C (racemic) | >5000 | Active | – | –
CC(Cl)/C=C/C(=O)N(Cc1ccc(C(N)=O)cc1)CC(C)C (racemic) | 500 | Active | – | –
CCCCCCC(Br)/C=C/C(=O)N(Cc1ccc(Cl)cc1)CC(C)C (racemic) | 5000 | – | – | –
CC(Cl)/C=C/C(=O)N(Cc1cc(Cl)ccc1OS(C)(=O)=O)CC(C)C (racemic) | >1000 | Active | – | –
CC(Cl)/C=C/C(=O)N(Cc1ccc(C(F)(F)F)cc1)CC(C)C (racemic) | 31 | Active | – | –
CC(Cl)/C=C/C(=O)N(Cc1ccc(C#N)cc1)CC(C)C (mixture of isomers) | 16 | Active | – | –
CC(C)CN(Cc1ccc(Cl)cc1)C(=O)/C=C/C(Br)C(C)C (racemic) | 250 | – | – | –
CCCC(Br)/C=C/C(=O)N(Cc1ccc(Cl)cc1)CC(C)C (racemic) | 250 | – | – | –
C=CCN(Cc1ccc(Cl)cc1)C(=O)/C=C/C(C)Cl (racemic) | 375 | Active | – | –
Cc1ccc(CN(CC(C)C)C(=O)/C=C/C(C)Cl)cc1 (racemic) | 125 | Active | – | –

Structure (SMILES) | ED90 [1] [gAi/ha] | growth inhibition (GI) [2] | growth inhibition (GI) [3] | Ratio [4]
COc1cc(CN(CC(C)C)C(=O)/C=C/C(C)Cl)ccc1Cl (racemic) | 16 | Active | – | –
CCC(Cl)/C=C/C(=O)N(Cc1ccc(Cl)cc1)CC(C)C (racemic) | 16 | – | – | –
CC(Br)/C=C/C(=O)N(Cc1ccc(Cl)cc1)CC(C)C (racemic) | 125 | Active | – | –
CCOC(=O)c1ccc(CN(CC(C)C)C(=O)/C=C/C(C)Cl)cc1 (racemic) | 1000 | Active | – | –
CCOc1cc(Oc2ccc(C(F)(F)F)cc2Cl)ccc1[N+](=O)[O-] | – | Active | – | –
COc1cc(Cl)ccc1CN(CC(C)C)C(=O)/C=C/C(C)Cl (racemic) | 500 | Active | – | –
CC(=O)Nc1ccc(CN(CC(C)C)C(=O)/C=C/C(C)Cl)cc1 (racemic) | >5000 | Active | – | –
CC(Cl)/C=C/C(=O)N(Cc1ccc(Cl)cc1)CC(C)C (racemic) | 16 | Active | – | 10
CCC(C)N(Cc1ccc(Cl)cc1)C(=O)/C=C/C(C)Cl (racemic) | 375 | Active | – | –
CC(Cl)/C=C/C(=O)N(C)Cc1ccc(Cl)cc1 (racemic) | 2000 | Active | – | –
CC(C)CN(Cc1ccc(Cl)cc1)C(=O)/C=C/CBr | >4000 | – | – | –
COc1ccc(Cl)cc1CN(CC(C)C)C(=O)/C=C/C(C)Cl (racemic) | >1000 | Active | – | –
COc1ccc(Cl)c(CN(CC(C)C)C(=O)/C=C/C(C)Cl)c1 (racemic) | 31 | Active | – | –
CC(Cl)/C=C/C(=O)N(Cc1ccc(C#N)cc1Cl)CC(C)C (mixture of isomers) | <16 | Active | – | –
CCCC(Cl)/C=C/C(=O)N(Cc1ccc(Cl)cc1)CC(C)C (racemic) | 500 | – | – | –
CCCN(Cc1ccc(Cl)cc1)C(=O)/C=C/C(C)Cl (racemic) | 125 | Active | – | –
CC(Cl)/C=C/C(=O)N(Cc1ccc(C=O)cc1)CC(C)C (racemic) | 1000 | Active | – | –
CC(Cl)/C=C/C(=O)N(Cc1cc(Cl)c(C#N)cc1Br)CC(C)C (racemic) | <16 | Active | – | –
